Measured values published in PubChem BioAssay (NCI).
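These data come from cells grown in 96-well plates and exposed to compound for 48 hours at five concentrations. GI50: concentration for 50% inhibition of growth. TGI: total growth inhibition.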

Experiments:
Test in all cases: NCI anticancer screen, dose series, 48 h
HOP-92 NSCLC = system: HOP-92 NSCLC
KM12 colon = system: KM12 colon
MALME-3M melanoma = system: MALME-3M melanoma
NCI-H23 lung = system: NCI-H23 lung
OVCAR-8 ovarian = system: OVCAR-8 ovarian
RXF 393 renal = system: RXF 393 renal
SK-MEL-5 melanoma = system: SK-MEL-5 melanoma
SK-OV-3 ovarian = system: SK-OV-3 ovarian
SNB-19 CNS = system: SNB-19 CNS
SW-620 colon = system: SW-620 colon

Row | Structure (SMILES) | GI50 (HOP-92 NSCLC) [µM] | TGI (HOP-92 NSCLC) [µM] | GI50 (KM12 colon) [µM] | TGI (KM12 colon) [µM] | GI50 (MALME-3M melanoma) [µM] | TGI (MALME-3M melanoma) [µM] | GI50 (NCI-H23 lung) [µM] | TGI (NCI-H23 lung) [µM] | GI50 (OVCAR-8 ovarian) [µM] | TGI (OVCAR-8 ovarian) [µM] | GI50 (RXF 393 renal) [µM] | TGI (RXF 393 renal) [µM] | GI50 (SK-MEL-5 melanoma) [µM] | TGI (SK-MEL-5 melanoma) [µM] | GI50 (SK-OV-3 ovarian) [µM] | TGI (SK-OV-3 ovarian) [µM] | GI50 (SNB-19 CNS) [µM] | TGI (SNB-19 CNS) [µM] | GI50 (SW-620 colon) [µM] | TGI (SW-620 colon) [µM]
1 | O=C1NC(=O)C(c2cnc3ccccn23)=C1c1cn2c3c(cc(F)cc13)CN(C(=O)N1CCCCC1)CC2 | 14.8 | 38.1 | 10.6 | 25.4 | 30.7 | 60.8 | 17.2 | 52.3 | 6.89 | > 92.1 | 0.0224 | 14.7 | 2.81 | 16.8 | 15.5 | 71.9 | 22.8 | > 87.5 | 14.2 | 45.8
2 | CN(C)/C=N/c1nc2c(ncn2C2OC(CO)C(O)C2O)c(=O)[nH]1 (stereo unspecified) |  | > 100 |  | > 100 |  | > 100 |  | > 100 |  | > 100 |  | > 100 |  | > 100 |  | > 100 |  | > 100 |  | > 100
3 | CC(C)CCN1c2nc(Nc3cc(F)c(O)c(F)c3)ncc2N(C)C(=O)C1C (stereo unspecified) | 0.591 | 14.9 | 2.92 | 14.7 | 6.63 | 64 | 5.27 | 67.8 | 17.6 | > 100 | 7.94 | 31.4 | 2.65 | 14 | 2.89 | > 100 | 6.35 | > 100 | 4.09 | 27.4
4 | [Cl][Hg][c]1cc(Br)cc(Br)c1 | 1.7 | 3.45 | 2.78 | 11.8 | 1.69 | 3.28 | 2.65 | 9.02 | 2.78 | 7.64 | 1.45 | 2.85 | 1.54 | 3.04 | 4.07 | 13 | 1.2 | 2.51 | 1.74 | 3.52
5 | O=C(O)CCC(=O)c1ccc[nH]1 |  | > 100 |  | > 100 |  | > 100 |  | > 100 |  | > 100 |  | > 100 |  | > 100 |  | > 100 |  | > 100 |  | 
6 | COC1(OC)CC2C(=O)N(Cc3ccccc3)C1C(S(=O)(=O)c1ccccc1)C2S(=O)(=O)c1ccccc1 (stereo unspecified) |  | 34 |  | 34.1 |  | 29.3 |  | 28.1 |  | 23.4 |  | 25.6 |  | 34 |  | 54.2 |  | > 100 |  | 13.6
7 | CC(C)=CCNc1ncnc2c1ncn2C1OC(CO)C(O)C1O (stereo unspecified) | 1.14 | 3.99 | 2.74 | > 630 | 226 | > 1000 | 2.81 | 125 | 0.496 | 3.34 | 0.488 | 2.6 | 5.74 | > 1000 | 1.75 | 33.5 | 3.81 | > 201 | 0.725 | 24.7
8 | CCCN=C(N)NC#N |  | > 100 |  | > 100 |  | > 100 |  | > 100 |  | > 100 |  | > 100 |  | > 100 |  | > 100 |  | > 100 |  | 30.8
9 | CC1=C(C(=O)Nc2ccccc2)C(c2ccccc2)C(C(=O)Nc2ccccc2)=C(C)N1 |  | > 100 |  | > 100 |  | > 100 |  | > 100 |  | > 100 |  | > 100 |  | > 100 |  | > 100 |  | > 100 |  | > 100
10 | N#CC(=C1C=CC(=NO)C=C1)c1ccccc1 | 2.49 | 9.46 | 0.355 | 1.2 | 4.92 | 19.8 | 9.92 | 34.1 | 2.71 | 12.3 | 1.14 | 8.63 | 2.01 | 8.3 | 5.75 | > 65 | 3.73 | 9.35 | 0.473 | 2.36
11 | OC[C@H]1C[C@](O)(c2ccc(Cl)cc2)[C@@H](c2ccc(Cl)cc2)O1 | 16.8 | 45.6 | 20.6 | 51 | 21.5 | 45.4 | 24.8 | 58.2 | 31.2 | 91.7 | 20.8 | 39.7 | 15.3 | 29.3 | 39.4 | > 100 | 37.8 | > 100 | 27.3 | > 100
12 | Cc1cc(I)cc(CN(C)CCCN2CCCCCCC2)c1O | 11.6 | 29.8 | 14.2 | 31 | 19.5 | 36.1 | 18.1 | 48.7 | 19.8 | 43.4 | 14.3 | 35.1 | 6.94 | 19.4 | 18.7 | 35.9 | 20.4 | 44.5 | 16.2 | 30.8
13 | COc1cc(C(Cc2ccccc2)NC(C)=O)oc(=O)c1 (stereo unspecified) |  | > 100 |  | > 100 |  | > 100 |  | > 100 |  | > 100 |  | > 100 |  | > 100 |  | > 100 |  | > 100 |  | > 100
14 | CCOc1ccccc1C=C1c2ccccc2C(=O)c2ccccc21 |  | 72.9 |  | > 100 |  | > 100 |  | > 100 |  | 43 |  | 5.96 |  | 20.8 |  | 8.67 |  | > 100 |  | 41.4
15 | CCN(CC)CCOc1ccc(-c2nc3cc(Cl)ccc3s2)cc1 | 1.22 | 4.2 |  |  | 1.45 | 2.8 | 1.64 | 3.32 | 1.99 | 4.02 | 1.01 | 2.77 | 1.54 | 2.88 | 1.77 | 3.84 | 2.26 | 5.36 | 1.53 | 2.93
16 | Cc1c([N+](=O)[O-])ccc2c(NCCCN(C)C)ccnc12 |  | 61.5 |  | 32.1 |  | 31.7 |  | 34.6 |  | > 100 |  | 60.8 |  | 29.6 |  | > 100 |  |  |  | 55.6
